In PubChem BioAssay AID1963421 (Molecular Pharmacology Branch, DTP, NCI, 2024):

Test system: 519858-162-T-J1-PDC complex spheroid growth, % test/control
Assay: Anticancer human tumor 519858-162-T-J1-PDC patient-derived colon adenocarcinoma cell line growth inhibition [Asc]
Settings: for IC50: curve of first compound; for viability, T/C: stronger effect = lower value; active = viability on the fitted dose curve at most 10% of control; inactive = the rest
In short: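 Stromal components (HUVEC and hMSC) are co-assembled with the cancer cells into multicellular spheroids. Drugs are then added singly or paired, at concentrations falling by half-log increments from a clinically achievable maximum, capped at 10 microM without known Cmax.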
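Also: seven day drug exposure begun three days after spheroid seeding.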
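For viability, T/C in this document: 100% = DMSO vehicle wells and lower values mean less viable spheroid.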

CCN1CCN(Cc2ccc(Nc3ncc(F)c(-c4cc(F)c5nc(C)n(C(C)C)c5c4)n3)nc2)CC1 + Cc1c(S(C)(=O)=O)c(-c2cc(F)cc(N3CCN(c4ccc(NS(=O)(=O)c5ccc(NC(CCN6CCC(C(=O)OCCCP(=O)(O)O)CC6)CSc6ccccc6)c(S(=O)(=O)C(F)(F)F)c5)cc4)CC3)c2)c(-c2ccc(Cl)cc2)n1C(C)C
> 1 µM: IC50 (second compound 0.0316 µM) | IC50 (second compound 0.1 µM) | IC50 (second compound 0.316 µM) | IC50 (second compound 1 µM) | IC50 (second compound 3.16 µM) | IC50 (second compound 10 µM)
inactive: viability, T/C (second compound 0.0316 µM, first compound 0.00316 µM) 124% | viability, T/C (second compound 0.0316 µM, first compound 0.01 µM) 106% | viability, T/C (second compound 0.0316 µM, first compound 0.0316 µM) 62.9% | viability, T/C (second compound 0.0316 µM, first compound 0.1 µM) 92% | viability, T/C (second compound 0.0316 µM, first compound 0.316 µM) 84.8% | viability, T/C (second compound 0.0316 µM, first compound 1 µM) 72.3% | viability, T/C (second compound 0.1 µM, first compound 0.00316 µM) 109% | viability, T/C (second compound 0.1 µM, first compound 0.01 µM) 95.8% | viability, T/C (second compound 0.1 µM, first compound 0.0316 µM) 89.2% | viability, T/C (second compound 0.1 µM, first compound 0.1 µM) 86.3% | viability, T/C (second compound 0.1 µM, first compound 0.316 µM) 79.5% | viability, T/C (second compound 0.1 µM, first compound 1 µM) 112% | viability, T/C (second compound 0.316 µM, first compound 0.00316 µM) 119% | viability, T/C (second compound 0.316 µM, first compound 0.01 µM) 109% | viability, T/C (second compound 0.316 µM, first compound 0.0316 µM) 98.3% | viability, T/C (second compound 0.316 µM, first compound 0.1 µM) 60.5% | viability, T/C (second compound 0.316 µM, first compound 0.316 µM) 95.6% | viability, T/C (second compound 0.316 µM, first compound 1 µM) 69.7% | viability, T/C (second compound 1 µM, first compound 0.00316 µM) 87.4% | viability, T/C (second compound 1 µM, first compound 0.01 µM) 76% | viability, T/C (second compound 1 µM, first compound 0.0316 µM) 62.6% | viability, T/C (second compound 1 µM, first compound 0.1 µM) 79% | viability, T/C (second compound 1 µM, first compound 0.316 µM) 75.2% | viability, T/C (second compound 1 µM, first compound 1 µM) 56.4% | viability, T/C (second compound 3.16 µM, first compound 0.00316 µM) 90.5% | viability, T/C (second compound 3.16 µM, first compound 0.01 µM) 68.6% | viability, T/C (second compound 3.16 µM, first compound 0.0316 µM) 101% | viability, T/C (second compound 3.16 µM, first compound 0.1 µM) 73.7% | viability, T/C (second compound 3.16 µM, first compound 0.316 µM) 67% | viability, T/C (second compound 3.16 µM, first compound 1 µM) 57.2% | viability, T/C (second compound 10 µM, first compound 0.00316 µM) 77.7% | viability, T/C (second compound 10 µM, first compound 0.01 µM) 61.1% | viability, T/C (second compound 10 µM, first compound 0.0316 µM) 62.6% | viability, T/C (second compound 10 µM, first compound 0.1 µM) 72.8% | viability, T/C (second compound 10 µM, first compound 0.316 µM) 63.3% | viability, T/C (second compound 10 µM, first compound 1 µM) 68%
